For the assay, the target named is hJAK3 kinase domain (aa781-end) (Homo sapiens (Human), UniProt P52333). As to the kind of experiment: JAK3 activity inhibition, kinase reaction (HTRF, TK substrate-biotin).
hJAK3 kinase domain (aa781-end), sequence (P52333 781-1124 limits assumed): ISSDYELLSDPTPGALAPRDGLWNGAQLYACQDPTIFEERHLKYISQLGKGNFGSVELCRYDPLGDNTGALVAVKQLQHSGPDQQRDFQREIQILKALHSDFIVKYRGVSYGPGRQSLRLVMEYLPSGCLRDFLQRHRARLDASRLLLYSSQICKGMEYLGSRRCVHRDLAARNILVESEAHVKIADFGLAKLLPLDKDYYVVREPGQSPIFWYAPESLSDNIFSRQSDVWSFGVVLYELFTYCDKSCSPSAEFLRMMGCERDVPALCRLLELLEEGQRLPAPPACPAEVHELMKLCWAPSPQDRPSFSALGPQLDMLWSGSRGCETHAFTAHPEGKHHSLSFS
Description: JAK3 activity inhibitory effects of test compounds were evaluated by the following kinase reactions.
In the kinase reactions, fused proteins (6His tag-fused hJAK3 kinase domain (aa781-end)) which were coexpressed in Sf21 cells and purified by Ni2+/NTA agarose were used.
A well in which ATP was not added was set out as a blank well.
Plates were let stand at room temperature for 10 minutes from starting reactions.
One hour after the addition of the buffer for detection, fluorescence counts of each well were measured by a fluorescence microplate reader.
Data were obtained by deducting the average Ratio of a blank well from Ratio of each well.
Compound `N#CCCN1CCCC12CCN(c1ncnc3[nH]ccc13)C2` (racemic) [Compound 53] had an IC50 of 56 nM.

The compound `c1ccc(CN2CCCC23CCN(c2ncnc4[nH]ccc24)C3)cc1` (racemic) [Compound 90] came in with an IC50 of 550 nM. On to `N#CCC(=O)N1CCCCC12CCN(c1c(Cl)cnc3[nH]ncc13)C2` (racemic) [Compound 93], for which the IC50 is 110 nM.

These data come from patent US8609647B2, “Nitrogen-containing spirocyclic compounds and pharmaceutical uses thereof” (Japan Tobacco Inc., priority 2009, dated 2013).
